For six molecules, viability results are on record in US9926277B2, “Pyridone compounds, pharmaceutical compositions thereof, and their therapeutic use for treating proliferative diseases” (BioTheryX, Inc., priority 2015, dated 2018).

This assay has as its system MDA-MB-231 cells. In words: Viability of MDA-MB-231 cancer cells (CELLTITER, Example B5). Format: cell-based. To be noted: Homo sapiens, 72 hours incubation, read-out: Cell Viability (%); for viability at 0.005 µM: Conc. 5 nM; for viability at 0.01 µM: Conc. 10 nM; for viability at 0.02 µM: Conc. 20 nM. The method, then: Compounds A1 and A3 to A6 were tested for their ability to reduce the viability of MDA-MB-231 cells, along with ciclopirox (CPX). MDA-MB-231 is a metastatic human breast cancer cell line. […] Seventy-two hours after incubation, cell viability was measured using CELLTITER® from Promega.

In general, viability refers to the share of living cells, or the viability signal relative to a control. Turning to `Cc1cc(C2CCCCC2)n(O)c(=O)c1` [CPX, ciclopirox, reference compound], the viability at 0.005 µM was found to be 43.4 ± 2.2%, the viability at 0.01 µM was found to be 46.3 ± 11.1% and the viability at 0.02 µM worked out at 20.9 ± 1.5%. Further, the viability at 0.003 µM (Conc. 3 nM) was 60.3 ± 2%.

On to `Cc1cc(C2CCCCC2)n(OS(=O)(=O)c2ccccc2)c(=O)c1` [Compound A1, 6-cyclohexyl-4-methyl-2-oxopyridin-1(2H)-yl benzenesulfonate], for which the viability at 0.005 µM was 46.8 ± 8%, the viability at 0.01 µM was found to be 31.1 ± 5.4% and the viability at 0.02 µM turned out to be 22.1 ± 4.9%.

For `Cc1cc(C2CCCCC2)n(OS(=O)(=O)c2ccc(C(C)C)cc2)c(=O)c1` [Compound A3, 6-Cyclohexyl-4-methyl-2-oxopyridin-1(2H)-yl 4-isopropylbenzenesulfonate], the viability at 0.005 µM was 48.3 ± 4.9%, the viability at 0.01 µM was determined as 34.4 ± 6.9% and the viability at 0.02 µM came to 28.4 ± 1.3%.

As to `CCCS(=O)(=O)On1c(C2CCCCC2)cc(C)cc1=O` [Compound A4, 6-Cyclohexyl-4-methyl-2-oxopyridin-1(2H)-yl propane-1-sulfonate], the viability at 0.005 µM worked out at 40.5 ± 11.4%, the viability at 0.01 µM is 32.3 ± 0.6% and the viability at 0.02 µM is 29.2 ± 1.7%.

With `Cc1cc(C2CCCCC2)n(OS(=O)(=O)c2c(C(C)C)cc(C(C)C)cc2C(C)C)c(=O)c1` [Compound A5, 6-Cyclohexyl-4-methyl-2-oxopyridin-1(2H)-yl 2,4,6-triisopropylbenzenesulfonate], the viability at 0.005 µM was 62.9 ± 9.6%, the viability at 0.01 µM turned out to be 50.6 ± 6.2% and the viability at 0.02 µM came out at 40.6 ± 7.1%.

Regarding `Cc1cc(C2CCCCC2)n(OS(=O)(=O)c2cccs2)c(=O)c1` [Compound A6, 6-Cyclohexyl-4-methyl-2-oxopyridin-1(2H)-yl thiophene-2-sulfonate], the viability at 0.005 µM amounted to 26.7 ± 4%, the viability at 0.01 µM was found to be 31.4 ± 8.4% and the viability at 0.02 µM was found to be 22.1 ± 3.6%.
